Test [1] concerns Pseudomonas aeruginosa strain NCTC 10332 (ATCC #10145). Briefly: bacterial proliferation assay, P. aeruginosa. The class given is cell-based. The settings on record: read-out: Bacterial Proliferation EC50 P. aeruginosa. As to the method: (§1) All compounds were evaluated for inhibiting the proliferation of E. coli and each of the ESKAPE bacteria. Results presented represent the averages of EC50 values obtained from at least four replicates. Evaluating compounds for inhibition of bacterial cell proliferation.
(§2) Growth Media: E. coli were grown with LB medium and all ESKAPE bacteria were grown in Brain Heart Infusion (BHI) medium (Becton, Dickinson and Company), with all liquid cultures supplemented with 25 mg/L Ca^2+ and 12.5 mg/L Mg^2+ to mimic physiological free concentrations of these cations. A 10 mg/mL Ca^2+ stock solution was prepared by dissolving 1.84 g of CaCl2.2H2O in 50 mL of deionized water, and a 10 mg/mL Mg^2+ stock solution was prepared by dissolving 4.18 g of MgCl2.6H2O in 50 mL deionized water—filter sterilized using 0.2 μm cellulose-acetate filters. 2.5 mL of the sterile 10 mg/mL Ca^2+ stock and 1.25 mL of the sterile 10 mg/mL Mg^2+ stock solutions were added per 1 L of autoclaved LB or BHI media to obtain 25 mg/L Ca^2+ and 12.5 mg/L Mg^2+ ions, respectively.
(§3) General Assay Protocol: Stock bacterial cultures were streaked onto LB or BHI agar plates and grown overnight at 37° C. Fresh aliquots of cation supplemented media were inoculated with single bacterial colonies and the cultures were grown overnight at 37° C. with shaking (240 rpm). The following morning, cultures were diluted 10-fold into fresh media and grown at 37° C. until bacteria had reached mid-log phase growth (OD600˜0.4-0.6). The cultures were then diluted into fresh media to achieve final OD600 readings of 0.017. Aliquots of these diluted cultures (30 μL) were added to clear, flat-bottom 384-well polystyrene plates that were previously stamped with 0.5 μL of test compounds in 20 μL of media (yielding initial OD600=0.01 bacterial cultures). All compounds were tested in dose-response with concentration ranges during the proliferation assays from 100 μM to 46 nM (3-fold dilution series). A second set of baseline control plates were prepared analogously, but without any bacteria added, to correct for possible compound absorbance and/or precipitation. […] Plates were then read at 600 nm using a Molecular Devices SpectraMax Plus384 microplate reader. […] Results presented represent the averages of EC50 values obtained from at least four replicates.
(§4) Evaluating analogs for inhibiting the growth of E. coli and the ESKAPE bacteria. Analogs were initially tested for antibacterial efficacy against representative strains of antibiotic-sensitive E. coli and the ESKAPE bacteria. To determine compound efficacy, bacterial proliferation assays were carried out in liquid media culture supplemented with physiological concentrations of free calcium and magnesium cations. For these assays, bacterial cultures (OD600=0.01) were exposed to test compounds in 8-point, 3-fold dilution series (100 μM to 46 nM concentration range), in 384-well plates. After addition of compounds to cultures, the plates were sealed with Breathe-Easy gas permeable membranes and allowed to grow to mid-log phase (OD600˜0.4-0.6), whereupon final OD600 readings were taken to assess for bacterial growth and inhibition.

Test [2] relates to Enterococcus faecium strain NCTC 7171 (ATCC #19434). Briefly: bacterial proliferation assay, E. faecium. The class given is cell-based. The settings on record: read-out: Bacterial Proliferation EC50 E. faecium. As for the experimental part:
as §1, §2, §3, §4

In test [3] the target is T1, native MDH (Sus scrofa, UniProt P00346).
T1 sequence (P00346 25-338): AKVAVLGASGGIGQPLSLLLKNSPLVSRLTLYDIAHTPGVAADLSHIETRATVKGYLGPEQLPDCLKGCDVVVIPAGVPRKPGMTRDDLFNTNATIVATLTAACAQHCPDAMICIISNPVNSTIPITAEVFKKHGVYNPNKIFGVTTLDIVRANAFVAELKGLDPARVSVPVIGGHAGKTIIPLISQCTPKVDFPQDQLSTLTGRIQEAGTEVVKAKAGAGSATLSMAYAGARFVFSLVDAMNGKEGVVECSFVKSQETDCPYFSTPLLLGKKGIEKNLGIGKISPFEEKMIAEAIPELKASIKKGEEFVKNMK
Briefly: native MDH activity counter-screen in the presence of E. coli NfsB nitroreductase. The class given is biochemical, pig. The settings on record: with E. coli NfsB nitroreductase; read-out: Native MDH Activity w/NfsB IC50. As to the method:
Evaluating compounds for inhibition in the GroEL/ES-mediated dMDH refolding assay and native MDH activity counter-screen in the presence of E. coli NfsB nitroreductase. These assays were performed nearly identically to those mentioned above, but with a couple distinct modifications. […] The remainder of the assay was conducted as in our standard protocol where no NfsB nitroreductase was present. […] Results presented represent the averages of IC50 values obtained from at least four replicates in each assay.
In general terms: Counterscreens check selectivity or assay interference.

Test [4] concerns the target T2, E. coli GroEL/ES (Escherichia coli, UniProt P0A6F5).
T2 construct: made in house; host or cells: GroEL in NEB 5-alpha E. coli; GroES in E. coli BL21 (DE3)
Briefly: GroEL/ES-mediated dMDH refolding assay in the presence of E. coli NfsB nitroreductase. The settings on record: for GroEL/ES inhibition in words: in the presence of E. coli NfsB. The class given is biochemical. As for the experimental part:
Evaluating compounds for inhibition in the GroEL/ES-mediated dMDH refolding assay and native MDH activity counter-screen in the presence of E. coli NfsB nitroreductase. These assays were performed nearly identically to those mentioned above, but with a couple distinct modifications. For both assays, 10 μg/mL of the E. coli NfsB nitroreductase enzyme (Sigma product #N9284) was added to the initial GroEL/ES-dMDH solution. For the GroEL/ES-dMDH refolding assay, after stamping with compounds, 10 μL of a 2.4 mM NADH solution was added, followed by a 10 minute incubation period at 37° C. to bioactivate the nitrofuran analogs. The remainder of the assay was conducted as in our standard protocol where no NfsB nitroreductase was present. […] For the native MDH activity counter-screen in the presence of E. coli NfsB nitroreductase, the assay was performed as described above for the GroEL/ES-dMDH refolding assay with NfsB; however, compound addition to the assay plates was conducted after the EDTA quench step, followed by a 10 minute incubation period at 37° C. to bioactivate the nitrofuran analogs. […] Results presented represent the averages of IC50 values obtained from at least four replicates in each assay.
Evaluating analogs for inhibiting GroEL/ES-mediated substrate refolding functions in the presence of the E. coli NfsB type-1 nitroreductase. […] However, our standard GroEL/ES-mediated refolding assays and native substrate reporter counter-screens were conducted without nitroreductases present.

For test [5], the system named is Enterobacter cloacae strain CDC 442-68 (ATCC #13047). The experiment in a line: bacterial proliferation assay, E. cloacae. The class given is cell-based. The settings on record: ATCC13047, read-out: Bacterial Proliferation EC50 E. cloacae. As for the experimental part: as §1, §2, §3, §4
Test [6] concerns NEB 5-alpha Escherichia coli. Briefly: bacterial proliferation assay, E. coli. The settings on record: for EC50: read-out: Bacterial Proliferation EC50 E. coli. The class given is cell-based. As for the experimental part:
as §1, §2, §3, §4

The mark [7] stands for this setting: with E. coli NfsB nitroreductase, read-out: NfsB-GroEL/ES-dMDH Refolding IC50.

Where two headings read alike, the source gives them in different places. Some results are limits rather than exact numbers.

T2 sequence (P0A6F5 2-548): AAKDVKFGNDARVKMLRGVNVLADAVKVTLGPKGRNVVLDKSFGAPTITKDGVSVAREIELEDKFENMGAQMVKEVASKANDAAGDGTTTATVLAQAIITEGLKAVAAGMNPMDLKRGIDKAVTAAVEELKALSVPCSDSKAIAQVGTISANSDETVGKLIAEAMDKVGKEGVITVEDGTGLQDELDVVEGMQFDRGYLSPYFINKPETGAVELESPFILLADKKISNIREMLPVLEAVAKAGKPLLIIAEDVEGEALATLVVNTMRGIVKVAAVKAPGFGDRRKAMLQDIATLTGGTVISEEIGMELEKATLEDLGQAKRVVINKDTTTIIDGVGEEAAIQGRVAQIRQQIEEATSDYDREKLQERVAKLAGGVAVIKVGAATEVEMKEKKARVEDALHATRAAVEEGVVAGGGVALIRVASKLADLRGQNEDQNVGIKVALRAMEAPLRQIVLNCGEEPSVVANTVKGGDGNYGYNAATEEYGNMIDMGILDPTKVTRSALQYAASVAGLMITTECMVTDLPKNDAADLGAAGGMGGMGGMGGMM

Consider `COc1ccc(C(=O)NN)cc1` [Compound 42, reference compound], for which the EC50 in test [1], in test [2], in test [5] and in test [6] (Escherichia coli) was > 100 µM each time. Moreover, the IC50 in test [3] was > 56 µM; in test [4] it was > 83 µM.

As to `COc1ccc(C(=O)N/N=C/c2cccc3ccccc23)cc1` [Compound 33, 4-methoxy-N′-(naphthalen-1-ylmethylene)benzohydrazide], the EC50 in test [1], in test [2], in test [5] and in test [6] (Escherichia coli) was > 100 µM throughout. Besides, the IC50 was > 56 µM in test [3] and > 83 µM in test [4].

For `O=C(N/N=C/c1ccc([N+](=O)[O-])o1)c1cccc2ccccc12` [Compound 22, N′-((5-nitrofuran-2-yl)methylene)-1-naphthohydrazide], the EC50 in test [1] was > 100 µM; in test [2] it was 16 µM; in test [5] it was > 100 µM; in test [6] (Escherichia coli) it was 41 µM. The figures for the IC50 in test [3] and in test [4] were > 56 µM and 5.3 µM, respectively.

On to `O=C(N/N=C/c1ccc(O)c2ncccc12)c1ccc(O)cc1` [Compound 7, 4-hydroxy-N′-((8-hydroxyquinolin-5-yl)methylene)benzohydrazide], for which the EC50 is > 100 µM in test [1], > 100 µM in test [2], 97 µM in test [5] and 46 µM in test [6] (Escherichia coli). The results for the IC50 in test [3] and in test [4] were > 56 µM and 16 µM, respectively.

Take `O=C(N/N=C/c1ccc([N+](=O)[O-])o1)c1ccc(NS(=O)(=O)c2cccs2)cc1` [Compound 26, N-(4-(2-((5-nitrofuran-2-yl)methylene)hydrazine-1-carbonyl)phenyl)thiophene-2-sulfonamide]: the EC50 in test [1] is > 100 µM; in test [2], 11 µM; in test [5] it was > 100 µM; in test [6] (Escherichia coli), 17 µM. The values for the IC50 in test [3] and in test [4] were > 56 µM and 6 µM, respectively.

Take `COc1ccc(C(=O)N/N=C/c2ccc(O)c3ncccc23)cc1` [Compound 1, N′-((8-hydroxyquinolin-5-yl)methylene)-4-methoxybenzohydrazide]: the figures for the EC50 in test [2], in test [5] and in test [6] (Escherichia coli) were > 100 µM, 100 µM and > 100 µM, respectively. Also, the IC50 in test [3] is > 56 µM; in test [4], 66 µM.

`COc1ccc(C(=O)N/N=C/c2ccc([N+](=O)[O-])o2)cc1` [Compound 20, 4-methoxy-N′-((5-nitrofuran-2-yl)methylene)benzohydrazide]: the EC50 is > 100 µM in test [1], 22 µM in test [2], > 100 µM in test [5] and 1.9 µM in test [6] (Escherichia coli). Also, in test [4] (setting [7]), the IC50 was found to be 10 µM.

For the molecule `CN(C)c1ccc(C(=O)N/N=C/c2ccc([N+](=O)[O-])o2)cc1` [Compound 21, 4-(dimethylamino)-N′-((5-nitrofuran-2-yl)methylene)benzohydrazide], the EC50 is > 100 µM in test [1], > 100 µM in test [2], > 100 µM in test [5] and 10 µM in test [6] (Escherichia coli). Besides, in test [4] (setting [7]), the IC50 stood at 12 µM.

`O=C(N/N=C/c1ccc([N+](=O)[O-])o1)c1cccs1` [Compound 16, N′-((5-nitrofuran-2-yl)methylene)thiophene-2-carbohydrazide]: the EC50 is > 100 µM in test [1], 24 µM in test [2], 40 µM in test [5] and 0.42 µM in test [6]. In addition, the IC50 in test [4] (setting [7]) was determined as 7.7 µM.

Consider `O=C(N/N=C/c1ccc([N+](=O)[O-])o1)c1ccccc1` [Compound 18, N′-((5-nitrofuran-2-yl)methylene)benzohydrazide], for which the EC50 was > 100 µM in test [1], 31 µM in test [2], > 100 µM in test [5] and 2.1 µM in test [6] (Escherichia coli). Moreover, the IC50 in test [4] (setting [7]) was 12 µM.

As to `O=C(N/N=C/c1ccc([N+](=O)[O-])o1)c1ccncc1` [Compound 19, N′-((5-nitrofuran-2-yl)methylene)isonicotinohydrazide], the EC50 in test [1] was > 100 µM; in test [2] it was 13 µM; in test [5], 73 µM; in test [6] (Escherichia coli), 2.4 µM. The IC50 in test [4] (setting [7]) came to 23 µM.

Regarding `O=C(N/N=C/c1ccc([N+](=O)[O-])o1)c1ccc(Cl)s1` [Compound 17, 5-chloro-N′-((5-nitrofuran-2-yl)methylene)thiophene-2-carbohydrazide], the EC50 in test [1] is > 100 µM; in test [2], 12 µM; in test [5] it was 49 µM; in test [6], 0.45 µM. In addition, the “GroEL/ES inhibition in words” value in test [4] is “most potent at inhibiting GroEL/ES in the presence of NfsB”. Further, the IC50 in test [4] (setting [7]) amounted to 3.2 µM. In test [6], the “inhibition of E. coli proliferation in words” value is on record as “potent inhibitors”.

With `O=C(N/N=C/c1ccc([N+](=O)[O-])o1)c1ccccc1Oc1ccccc1` [Compound 23, N′-((5-nitrofuran-2-yl)methylene)-2-phenoxybenzohydrazide], the EC50 is > 100 µM in test [1], 11 µM in test [2], > 100 µM in test [5] and > 100 µM in test [6] (Escherichia coli). In addition, the IC50 in test [3] is > 56 µM.

For the molecule `O=C1CN(/N=C/c2ccc([N+](=O)[O-])o2)C(=O)N1` [Nitrofurantoin, reference compound], the EC50 was > 100 µM in test [1], 38 µM in test [2], 36 µM in test [5] and 0.69 µM in test [6] (Escherichia coli). Moreover, the “GroEL/ES inhibition in words” value in test [4] is “weak to moderate GroEL/ES inhibitors”. Also, in test [4] (setting [7]), the IC50 stood at 84 µM. Moreover, the “inhibition of E. coli proliferation in words” value in test [6] is “potent inhibitors”.

The values are drawn from patent US20220009914A1, “Analogs of Nitrofuran Antibiotics to Combat Resistance” (The Trustees of Indiana University, priority 2020, published 2022).
